The values below come from paper PMC10635799, “Analogs of FTY720 inhibit TRPM7 but not S1PRs and exert multimodal anti-inflammatory effects” (The Journal of General Physiology, 2023).

In one data set the test system is alveolar macrophages. The experiment in a line: LPS-induced cytokine expression in primary alveolar macrophages (qRT-PCR). The class given is cell-based, mouse. As to conditions: 10 µM pretreatment, LPS 1 µg/ml for 3 h. The procedure:
Alveolar macrophages were isolated and cultured from wildtype (WT) C57BL/6 mice (Strain #000664; Jackson Laboratory) using an established protocol ([Nayak et al., 2018]). […] Using a 5-ml syringe filled with 3 ml of bronchoalveolar lavage buffer (“BAL buffer”: Ca^2+- and Mg^2+-free PBS + 1 mM EDTA), the lungs were first filled with ∼2 ml of BAL buffer, then flushed five times in a cycle involving the installation and removal of 1 ml of buffer. The collected BAL fluid was pooled and the cyclical perfusion step was repeated with fresh buffer until a total of ∼10 ml of BAL fluid was collected. BAL fluid with gross evidence of blood contamination was discarded. A pellet was obtained through centrifugation at 500 × g for 5 min, and contaminating red blood cells were lysed by resuspending cells for 5 min in 5 ml of ice-cold ACK Lysis buffer (A1049201; Gibco). The cells were then pelleted at 500 × g for 5 min, resuspended in alveolar macrophage culture media (DMEM supplemented with 10% FBS, 20% L-929 culture supernatant, 1 mM sodium pyruvate, 10 mM HEPES, and 1× penicillin/streptomycin), and plated onto untreated tissue culture dishes for 24 h. The media was exchanged prior to use to remove unattached cells.
RAW 264.7 macrophages or BMDMs were seeded at a density of 250,000 cells per well into a 12-well tissue culture plate in 1 ml of media and left to incubate overnight. The indicated drug or vehicle control was added to each well, and the plate was agitated and left to incubate for 10 min. […] Cells were washed with PBS and then RNA isolation was performed using RNeasy Plus Micro Kit (74134; Qiagen). cDNA was produced using GoScript Reverse Transcriptase (A5004; Promega) and a quantitative PCR was performed using SensiFast SYBR (98020; Bioline) and Bio-Rad CFX Connect thermocycler. […] Fold-changes are all reported relative to untreated controls for each experiment and were calculated using the ∆∆Ct method, with β2-microglobulin used as the housekeeping gene for each sample. […]
For orientation: Real-time PCR tracks product formation cycle by cycle.

Data set [1] is described as follows: Whole-blood, brain and lung drug levels by LC-MS/MS in the sublethal LPS peritonitis model. In kind it is in vivo. As to conditions: for Kp at 4 h / concentration at 4 h: both sexes, C57BL/6J, mouse, intraperitoneal. The procedure: 12-wk-old WT C57BL/6J mice were purchased from Jackson Laboratory (Strain #000664). An equal number of male and female mice were randomly assigned to each treatment group. All studies were conducted according to a protocol approved by the University of Virginia Animal Care and Use Committee. Mice were socially housed with littermate controls and provided with free access to a standard chow diet and water. Baseline weights were taken <1 h prior to the experiment for individual dose calculations. For the sublethal model, mice were injected intraperitoneally with LPS (1 mg/kg), VPC01091.4 (30 mg/kg), both LPS and VPC01091.4, or vehicle alone (20% 2-hydroxypropyl-β-cyclodextrin in PBS). The volume injected was 200 μl and solutions were sterile-filtered (0.45 µm) prior to use. […] Mice were euthanized at 4 h, then blood was collected via cardiac puncture and anticoagulated with K2EDTA. […] The lungs were dissected, coarsely homogenized, and partitioned into separate samples for RNA extraction and mass spectrometry analysis. Samples to be used for RNA were stored at −20°C in RNAlater Stabilization Solution (AM7021; Thermo Fisher Scientific) while samples for use in mass spectrometry were flash-frozen in liquid nitrogen. Whole brains were physically dissected, coarsely homogenized, and stored for later processing as with the lung tissue. 10 μl of each whole blood sample was reserved for mass spectrometry analysis, 15 μl was used to obtain lymphocyte counts with a Hematology Analyzer (Heska Element HT5), and the remainder was used to produce plasma through centrifugation at 2,000 × g for 15 min at 4°C. Plasma cytokines were then measured using a multiplex mouse proinflammatory cytokine panel performed by the University of Virginia Flow Cytometry Core (RRID: SCR_017829). Cytokine values beyond the limit of detection (LOD) are reported as the LOD value. Tissue RNA was isolated from preserved samples using 30 min of automated homogenization at 30 Hz with 5-mm ball-bearings in RLT Plus Lysis Buffer (TissueLyser II; Qiagen); RNA was then isolated using a RNeasy Plus Micro Kit (74134; Qiagen). Whole-tissue cytokine expression changes were then measured using qRT-PCR as with ex vivo cell culture experiments. For the lethal dose model, mice were injected with LPS (25 mg/kg), both LPS and VPC01091.4, or vehicle alone (20% 2-hydroxypropyl-β-cyclodextrin in PBS). Symptoms were scored according to a standardized clinical score sheet that assessed conjunctivitis, lethargy, degradation in hair grooming behavior, stool changes, and facial grimace (Table 1). Mice that lost >20% of their starting body weight or received a clinical score of 8 or greater were euthanized.
The sample preparation method was adapted from that published by [Shaner et al. (2009)]. Specifically, homogenized tissue (100 μl) was added to a mixture of methanol and chloroform (2 ml, 3:1, LCMS grade) and incubated at 48°C for 16 h. The mixture was cooled to room temperature, an alcoholic KOH solution (200 μl, 1 M in LCMS-grade methanol) was added, and the mixture was further incubated at 37°C for 2 h. The samples were neutralized with glacial acetic acid (20 μl) and centrifuged at 4°C for 10 min at 10,000 × g. The supernatant fluid was transferred to a glass vial and dried under a stream of nitrogen. The material was dissolved in LCMS grade methanol (500 μl), vortexed, and centrifuged at 4°C for 10 min at 10,000 × g. The supernatant fluid was transferred to LC vials for analysis by LC-MS/MS.
Analyses were performed using a tandem quadrupole mass spectrometer (Xevo TQ-S micro; Waters) coupled to a UPLC (Waters Acquity h-class+) inlet equipped with a reverse phase C18 UPLC column (BEH C-18 1.7 µm bead size, 2.1 × 50 mm; Waters). The method used is a modification of that published by [Frej et al. (2015)]. Specifically, the LC flow rate was set at 0.4 ml/min and the column temperature was 60°C. […]

Where two headings read alike, the source gives them in different places.

Consider `CCCCCCCCc1ccc([C@@H]2CC[C@@](N)(CO)C2)cc1` [VPC01091.4, ((1S,3R)-1-amino-3-(4-octylphenyl)cyclopentyl)methanol], for which the “LPS-induced CCL4 expression” value with alveolar macrophages is recorded as “significantly suppressed”. Moreover, the “LPS-induced IL-1β expression” value with alveolar macrophages is listed as “significantly suppressed”. In addition, the “LPS-induced TNFα expression” value in the data set with alveolar macrophages was “significantly suppressed”. In addition, the Kp at 4 h worked out at 9.35 in data set [1] (brain / whole blood, 30 mg/kg i.p., VPC4 + LPS group, read-out: Mean brain level relative to mean blood level); 8.97 in data set [1] (brain / whole blood, 30 mg/kg, 30 mg/kg i.p., VPC4 group, read-out: Mean brain level relative to mean blood level); 33.2 in data set [1] (lung / whole blood, 30 mg/kg i.p., VPC4 + LPS group, read-out: Mean lung level relative to mean blood level); 31.1 in data set [1] (lung / whole blood, 30 mg/kg, 30 mg/kg i.p., VPC4 group, read-out: Mean lung level relative to mean blood level); 32 in data set [1] (lung / whole blood, 30 mg/kg, mice that received VPC4, 30 mg/kg i.p., read-out: Lung levels relative to blood). The concentration at 4 h in data set [1] (brain, 30 mg/kg i.p., VPC4 + LPS group, read-out: Mean brain concentration) amounted to 162 µM; in data set [1] (brain, 30 mg/kg i.p., VPC4 group, read-out: Mean brain concentration), 142 µM; in data set [1] (lung, 30 mg/kg i.p., VPC4 + LPS group, read-out: Mean lung concentration), 576 µM; in data set [1] (lung, 30 mg/kg i.p., VPC4 group, read-out: Mean lung concentration), 490 µM; in data set [1] (whole blood, 30 mg/kg i.p. with LPS 1 mg/kg, cotreatment group, read-out: Mean whole blood concentration) it was 17.4 µM; in data set [1] (whole blood, 30 mg/kg i.p., drug-treated group, read-out: Mean whole blood concentration), 15.8 µM. Moreover, in data set [1] (mice that received VPC4, 30 mg/kg i.p., 4 h), the “Brain levels relative to blood” value is “approximately ninefold”.
